Source: ChEMBL document CHEMBL1121944, “Conformation-activity study of 4-phenylpiperidine analgesics” (1982)

Key:
[1] = Relative potency was determined to 3-dimethyl prodine after brain penetration; type: functional
[2] = Analgesic activity was determined; type: functional

Row | SMILES | Relative potency [1] | ED50 [2] [mg/kg]
1 | CCC(=O)OC1(c2ccccc2)CCN(C)CC1 | 1 | 1
2 | CCC(=O)OC1(c2ccccc2)CCN(C)CC1C (stereo unspecified) [ALPHAPRODINE] | 1.24 | 1.45
3 | CCC(=O)O[C@@]1(c2ccccc2)CCN(C)C[C@@H]1C [BETAPRODINE] | 1.77 | 5.21
